Earlier results, collected in patent US12648920B2, “Methods of administering glutathione precursors” (Neuronasal, Inc., priority 2020, dated 2026).

Settings: oral

Structure (SMILES): CC(=O)N[C@@H](CS)C(=O)O [NAC, N-acetylcysteine]
- orally bioavailable: < 10%
